What follows are compounds tested against T1, ASK1 (Homo sapiens, UniProt Q99683) (assay: Scintillation assay for measuring the inhibitory effect against ASK1 (myelin basic protein substrate, [γ-32P]ATP)). Conditions: Table 1, assay of Example A and B, read-out: Enzyme Activity IC50.
T1 construct: a 2.2 kb DNA fragment containing an ASK1 gene was recovered from the gel; FLAG (N); made in house; host or cells: Sf-21 insect cells (recombinant baculovirus, pFASTBAC1)
T1 sequence (Q99683 649-1374 limits assumed): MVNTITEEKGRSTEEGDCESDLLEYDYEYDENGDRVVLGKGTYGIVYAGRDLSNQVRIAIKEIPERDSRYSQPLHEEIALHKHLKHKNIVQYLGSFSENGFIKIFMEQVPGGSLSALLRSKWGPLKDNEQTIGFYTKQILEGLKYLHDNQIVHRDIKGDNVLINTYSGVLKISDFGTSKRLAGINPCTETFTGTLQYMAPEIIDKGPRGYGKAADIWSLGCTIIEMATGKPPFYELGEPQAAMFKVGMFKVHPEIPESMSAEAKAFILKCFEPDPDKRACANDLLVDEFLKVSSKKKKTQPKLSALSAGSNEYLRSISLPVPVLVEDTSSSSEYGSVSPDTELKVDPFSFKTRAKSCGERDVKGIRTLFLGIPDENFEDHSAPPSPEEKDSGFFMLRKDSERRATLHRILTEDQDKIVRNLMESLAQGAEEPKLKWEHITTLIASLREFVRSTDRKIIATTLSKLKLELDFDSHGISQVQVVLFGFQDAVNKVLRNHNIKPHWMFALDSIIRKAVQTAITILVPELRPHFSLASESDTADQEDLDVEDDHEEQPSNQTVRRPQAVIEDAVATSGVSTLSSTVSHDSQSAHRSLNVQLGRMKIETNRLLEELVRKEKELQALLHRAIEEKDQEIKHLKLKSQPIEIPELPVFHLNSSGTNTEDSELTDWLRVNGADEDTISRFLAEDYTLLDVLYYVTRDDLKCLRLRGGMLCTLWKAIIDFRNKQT
Format: biochemical
Source text: The inhibitory effect of the compound of the invention on ASK1 may be evaluated by evaluating the phosphorylating activity of the enzyme on a known substrate with or without the presence of the test compound. Example B provides such an assay where myelin basic protein (Wako) is used as substrate and detection is by scintillation counting. It should be understood other substrates and detection mechanism may be used. A commercially available a kit, Cisbio's HTRF® KinEASE™ STK kit, has shown to be useful for evaluating ASK1 activity. The assay uses an anti-phosphoseric specific, Eu3+-Cryptate labeled antibody to mark the phosphorylated product of ASK1 on a biotinylated kinase substrate, and detection is by time resolved fluorescence using XL665 labeled streptavidin. The fluorescence intensity is proportional to the amount of product formation. Example C provides the assay protocol.
Cloning of cDNA encoding human ASK1 was conducted by PCR using primers, 5′-[…] […]-3 (SEQ ID NO: 1) and 5′-AAAGCGGCCGCTCAA […]-3′ (SEQ ID NO: 2), from human heart cDNA library (Becton, Dickinson and Company). The PCR product was subjected to agarose gel (1%) electrophoresis, a 2.2 kb DNA fragment containing an ASK1 gene was recovered from the gel, and then digested with restriction enzymes, NotI and SalI, and inserted into a plasmid pFASTBAC1 (Invitrogen) to prepare a plasmid pFB-ASK1. The insert was verified by sequencing. Recombinant baculovirus was prepared according to the procedure of the Bac-to-Bac baculovirus expression system (Invitrogen).
Sf-21 cells were seeded to achieve 1×10^6 cells/mL in 100 mL of Sf-900 II SFM medium (Invitrogen) which contains 10% fetal calf serum and then cultured at 27° C. for 24 hrs. To express ASK1 in cells, 0.15 mL of the recombinant baculovirus virus stock was added to cells, and the then cultured for 60 hrs. The cells were separated from the culture solution by centrifugation at 3000 rpm for 10 min and washed once with PBS. The cells were suspended in 10 mL of lysis buffer (25 mM HEPES (pH 7.5), 1% Triton X, 130 mM NaCl, 1 mM EDTA, 1 mM DTT, 25 mM β-glycerophosphate, Protease inhibitor complete (Roche), 1 mM sodium orthovanadate) and ruptured by four times of treatment with a homogenizer (POLYTRON) at 20000 rpm for 30 seconds. Active ASK1 protein was purified from a supernatant obtained by centrifugal separation at 40000 rpm for 45 min using anti-FLAG M2 Affinity Gel (Sigma).
The test compounds (2.5 μL) dissolved in DMSO were added to wells containing 37.5 μl of the reaction solution (25 mM HEPES (pH 7.5), 10 mM magnesium acetate, 1 mM DTT) including 30 ng of active ASK1 protein and 1 μg of myelin basic protein (Wako), and incubated at room temperature for 5 min. To start the reaction, 10 μL of ATP solution (2.5 μM ATP, 0.1 μCi [γ-^32P]ATP) was added to wells. After incubating at room temperature for 30 min, the reaction was terminated by adding 50 μl of 20% TCA solution. The reaction solution was incubated at 4° C. for 30 min and an acid-insoluble fraction was transferred onto a GF/C filter (Packard) with Cell Harvester (Packard), and washed with 250 mM phosphoric acid. After drying at 45° C. for 60 min., 40 μL of Microscint 0 (Packard) was added and the radioactivity was measured with TopCount (Packard). The concentrations (IC50 value) of the test compounds necessary for 50% inhibition of kinase activity were calculated by PRISM 3.0 (Graphpad Software).
The enzyme activities of the compounds of the present invention against ASK1 were determined using the assay disclosed in Example A and B. The resulted IC50 values are reported in Table 1.

Row | IC50 | SMILES
1 | > 1000 nM | O=C(Nc1nc2ccc(-c3cn[nH]c3)nc2s1)c1ccc(C2CC2)cc1 [Compound 5, N-(5-(1H-pyrazol-4-yl)thiazolo[5,4-b]pyridin-2-yl)-4-cyclopropylbenzamide]
2 | 100 to 1000 nM | CC(C)(O)c1ccc(C(=O)Nc2nc3ccc(-n4ccnc4)nc3s2)cc1 [Compound 7, N-(5-(1H-imidazol-1-yl)thiazolo[5,4-b]pyridin-2-yl)-4-(2-hydroxypropan-2-yl)benzamide]
3 | > 1000 nM | CC(C)(O)c1ccc(C(=O)Nc2nc3ccc(N4CCCC4)nc3s2)cc1 [Compound 8, 4-(2-hydroxypropan-2-yl)-N-(5-(pyrrolidin-1-yl)thiazolo[5,4-b]pyridin-2-yl)benzamide]
4 | < 100 nM | CC(C)(C)c1ccc(C(=O)Nc2nc3ccc(-c4cn[nH]c4)nc3s2)cc1 [Compound 9, N-(5-(1H-pyrazol-4-yl)thiazolo[5,4-b]pyridin-2-yl)-4-tert-butylbenzamide]
5 | 100 to 1000 nM | CC(C)(C)c1ccc(C(=O)Nc2nc3ccc(-c4ccncc4)nc3s2)cc1 [Compound 10, 4-tert-butyl-N-(5-(pyridin-4-yl)thiazolo[5,4-b]pyridin-2-yl)benzamide]
6 | 100 to 1000 nM | CC(C)(C)c1ccc(C(=O)Nc2nc3ccc(-n4ccnc4)nc3s2)cc1 [Compound 11, N-(5-(1H-imidazol-1-yl)thiazolo[5,4-b]pyridin-2-yl)-4-tert-butylbenzamide]
7 | < 100 nM | CC(C)(O)c1ccc(C(=O)Nc2nc3ccc(-c4cn[nH]c4)nc3s2)cc1 [Compound 12, N-(5-(1H-pyrazol-4-yl)thiazolo[5,4-b]pyridin-2-yl)-4-(2-hydroxypropan-2-yl)benzamide]
8 | < 100 nM | CC(C)(CO)c1ccc(C(=O)Nc2nc3ccc(-c4cn[nH]c4)nc3s2)cc1 [Compound 13, N-(5-(1H-pyrazol-4-yl)thiazolo[5,4-b]pyridin-2-yl)-4-(1-hydroxy-2-methylpropan-2-yl)benzamide]
9 | 100 to 1000 nM | Cc1n[nH]c(C)c1-c1ccc2nc(NC(=O)c3ccc(C(C)(C)O)cc3)sc2n1 [Compound 14, N-(5-(3,5-dimethyl-1H-pyrazol-4-yl)thiazolo[5,4-b]pyridin-2-yl)-4-(2-hydroxypropan-2-yl)benzamide]
10 | < 100 nM | Cc1n[nH]cc1-c1ccc2nc(NC(=O)c3ccc(C(C)(C)O)cc3)sc2n1 [Compound 15, 4-(2-hydroxypropan-2-yl)-N-(5-(3-methyl-1H-pyrazol-4-yl)thiazolo[5,4-b]pyridin-2-yl)benzamide]
11 | 100 to 1000 nM | Cn1cc(-c2ccc3nc(NC(=O)c4ccc(C(C)(C)O)cc4)sc3n2)cn1 [Compound 19, 4-(2-hydroxypropan-2-yl)-N-(5-(1-methyl-1H-pyrazol-4-yl)thiazolo[5,4-b]pyridin-2-yl)benzamide]
12 | > 1000 nM | COC(=O)c1ccc(C(=O)Nc2nc3ccc(-c4c[nH]nc4C)nc3s2)cc1 [Compound 20, methyl 4-(5-(3-methyl-1H-pyrazol-4-yl)thiazolo[5,4-b]pyridin-2-ylcarbamoyl)benzoate]
13 | < 100 nM | Cc1n[nH]cc1-c1ccc2nc(NC(=O)c3ccc(C(C)(C)CO)cc3)sc2n1 [Compound 21, 4-(1-hydroxy-2-methylpropan-2-yl)-N-(5-(3-methyl-1H-pyrazol-4-yl)thiazolo[5,4-b]pyridin-2-yl)benzamide]
14 | > 1000 nM | CCc1nccn1-c1ccc2nc(NC(=O)c3ccc(C(C)(C)O)cc3)sc2n1 [Compound 22, N-(5-(2-ethyl-1H-imidazol-1-yl)thiazolo[5,4-b]pyridin-2-yl)-4-(2-hydroxypropan-2-yl)benzamide]
15 | 100 to 1000 nM | Cc1cnccc1-c1ccc2nc(NC(=O)c3ccc(C(C)(C)CO)cc3)sc2n1 [Compound 26, 4-(1-hydroxy-2-methylpropan-2-yl)-N-(5-(3-methylpyridin-4-yl)thiazolo[5,4-b]pyridin-2-yl)benzamide]
16 | 100 to 1000 nM | CC(C)(O)c1ccc(C(=O)Nc2nc3ccc(-c4ccncc4)nc3s2)cc1 [Compound 30, 4-(2-hydroxypropan-2-yl)-N-(5-(pyridin-4-yl)thiazolo[5,4-b]pyridin-2-yl)benzamide]
17 | < 100 nM | CC(C)(CO)c1ccc(C(=O)Nc2nc3ccc(-c4ccc(O)nc4)nc3s2)cc1 [Compound 33, 4-(1-hydroxy-2-methylpropan-2-yl)-N-(5-(6-hydroxypyridin-3-yl)thiazolo[5,4-b]pyridin-2-yl)benzamide]
18 | 100 to 1000 nM | CC(C)(CO)c1ccc(C(=O)Nc2nc3ccc(-c4ccncc4)nc3s2)cc1 [Compound 34, 4-(1-hydroxy-2-methylpropan-2-yl)-N-(5-(pyridin-4-yl)thiazolo[5,4-b]pyridin-2-yl)benzamide]
19 | < 100 nM | CC(C)(O)c1ccc(C(=O)Nc2nc3ccc(-c4ccc(O)nc4)nc3s2)cc1 [Compound 35, 4-(2-hydroxypropan-2-yl)-N-(5-(6-hydroxypyridin-3-yl)thiazolo[5,4-b]pyridin-2-yl)benzamide]
20 | > 1000 nM | CC(C)(O)c1ccc(C(=O)Nc2nc3ccc(N4CC[C@@H](O)C4)nc3s2)cc1 [Compound 36, (R)-4-(2-hydroxypropan-2-yl)-N-(5-(3-hydroxypyrrolidin-1-yl)thiazolo[5,4-b]pyridin-2-yl)benzamide]
21 | > 1000 nM | CC(C)(O)c1ccc(C(=O)Nc2nc3ccc(N4CCCCC4)nc3s2)cc1 [Compound 38, 4-(2-hydroxypropan-2-yl)-N-(5-(piperidin-1-yl)thiazolo[5,4-b]pyridin-2-yl)benzamide]

Same assay, conditions: assay described in Example B, read-out: IC50 value

Row | IC50 | SMILES
22 | 310 nM | CC(C)(O)c1ccc(C(=O)Nc2nc3ccc(-c4ccncc4)nc3s2)cc1 [Compound 30, 4-(2-hydroxypropan-2-yl)-N-(5-(pyridin-4-yl)thiazolo[5,4-b]pyridin-2-yl)benzamide]
